The results in this text go back to ChEMBL document CHEMBL5512601, “Small-molecule inhibitors targeting apoptosis signal-regulated kinase 1” (Eur J Med Chem, 2023).

Data set [1] has as its target T1, Mitogen-activated protein kinase kinase kinase 5 (Homo sapiens, UniProt Q99683).
T1 sequence (Q99683 whole entry): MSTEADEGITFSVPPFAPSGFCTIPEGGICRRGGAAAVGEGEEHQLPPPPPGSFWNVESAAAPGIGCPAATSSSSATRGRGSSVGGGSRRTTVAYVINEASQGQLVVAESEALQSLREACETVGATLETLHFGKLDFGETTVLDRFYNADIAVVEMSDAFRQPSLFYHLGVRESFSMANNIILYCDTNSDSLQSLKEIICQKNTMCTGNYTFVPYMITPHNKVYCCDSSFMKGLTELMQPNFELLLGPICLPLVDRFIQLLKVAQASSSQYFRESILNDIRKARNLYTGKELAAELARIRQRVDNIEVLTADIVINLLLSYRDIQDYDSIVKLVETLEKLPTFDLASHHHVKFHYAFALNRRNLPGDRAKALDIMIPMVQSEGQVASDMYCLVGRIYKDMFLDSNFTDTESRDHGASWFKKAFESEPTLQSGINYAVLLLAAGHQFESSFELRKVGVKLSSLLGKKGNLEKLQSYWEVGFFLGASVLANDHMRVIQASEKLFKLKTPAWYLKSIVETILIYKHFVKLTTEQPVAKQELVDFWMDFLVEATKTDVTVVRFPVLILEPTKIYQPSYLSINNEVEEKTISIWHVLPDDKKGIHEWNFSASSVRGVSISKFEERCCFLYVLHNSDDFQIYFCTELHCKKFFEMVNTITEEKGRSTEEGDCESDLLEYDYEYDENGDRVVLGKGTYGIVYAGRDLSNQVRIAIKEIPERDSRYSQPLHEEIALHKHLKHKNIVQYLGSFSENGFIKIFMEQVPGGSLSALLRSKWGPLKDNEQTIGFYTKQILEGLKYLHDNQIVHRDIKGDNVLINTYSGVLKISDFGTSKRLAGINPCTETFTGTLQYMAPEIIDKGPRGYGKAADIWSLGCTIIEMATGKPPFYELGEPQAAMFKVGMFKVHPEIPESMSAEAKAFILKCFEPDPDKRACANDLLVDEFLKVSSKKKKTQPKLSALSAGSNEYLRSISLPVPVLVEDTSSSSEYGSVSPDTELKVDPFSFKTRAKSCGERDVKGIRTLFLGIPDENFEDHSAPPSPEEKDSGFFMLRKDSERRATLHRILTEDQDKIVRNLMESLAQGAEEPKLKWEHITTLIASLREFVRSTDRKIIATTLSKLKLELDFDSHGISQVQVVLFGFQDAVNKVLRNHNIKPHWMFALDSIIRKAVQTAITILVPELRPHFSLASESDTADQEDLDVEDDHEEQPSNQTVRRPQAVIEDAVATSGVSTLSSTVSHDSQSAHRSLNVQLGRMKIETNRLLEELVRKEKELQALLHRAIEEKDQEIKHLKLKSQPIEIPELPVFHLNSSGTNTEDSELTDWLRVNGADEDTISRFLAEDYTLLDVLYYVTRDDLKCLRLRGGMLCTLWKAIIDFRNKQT
Put plainly: Inhibition of full length GST-tagged recombinant human ASK1 using MBP as substrate incubated for 20 mins.

Data set [2] addresses T1, Mitogen-activated protein kinase kinase kinase 5. Description: Inhibition of full length GST-tagged recombinant human ASK1 using MBP as substrate incubated for 20 mins by cell based assay.
Data set [3] in a line: Apparent permeability of compound across apical to basolateral side in human Caco2 cells. The following applies: Caco-2. The data set is classed as ADME, cell-based.
Data set [4] can be described thus: Efflux ratio of apparent permeability across basolateral to apical side over apical to basolateral side in human Caco2 cells by LC-MS/MS analysis. Type of data set: ADME, cell-based. To be noted: Caco-2.
For data set [5], the target named is T1, Mitogen-activated protein kinase kinase kinase 5. Description: Inhibition of ASK1 in HEK293 cells. The data set is classed as cell-based.
A short description of data set [6]: Oral bioavailability in Sprague-Dawley rat at 1 mg/kg by LC-MS/MS analysis. The data set is classed as ADME, organism-based. To be noted: in vivo.
The nature of data set [7]: Half life in Sprague-Dawley rat at 1 mg/kg, iv by LC-MS/MS analysis. The data set is classed as ADME, organism-based. To be noted: in vivo.
Data set [8] is filed under the species Rattus norvegicus. Description: Antifibrotic activity CDHFD-NaNO2 rat model. The data set is classed as functional.
The species named for data set [9] is Rattus norvegicus. Description: Antifibrotic activity CDHFD-NaNO2 rat model assessed as effect on hydroxyproline level. The data set is classed as functional.
Data set [10] in a line: Unbound brain-to-plasma concentration ratio in rat at 1 mg/kg, iv by LC-MS/MS analysis. The data set is classed as ADME, organism-based. The following applies: brain and plasma, read-out: K(p,uu,brain).
The target of data set [11] is T1, Mitogen-activated protein kinase kinase kinase 5. Put plainly: Inhibition of ASK1 (unknown origin) incubated for 2 hrs.
Data set [12] shares this target. Description: Inhibition of ASK1 phosphorylation in HEK293T cells incubated for 1 hr. The data set is classed as cell-based.
For data set [13] the target is unchanged. Description: Inhibition of ASK1 (unknown origin) incubated for 0.5 to 5 hrs by TR-FRET assay. On the technique in general: TR-FRET usually uses a lanthanide donor and a delayed reading to cut background.
The nature of data set [14]: AUC (0 to t) in rat 5 mg/kg, po measured upto 24 hrs by LC-MS/MS analysis. The data set is classed as ADME, organism-based. The following applies: in vivo.
Data set [15] in a line: Cmax in rat 5 mg/kg, po measured upto 24 hrs by LC-MS/MS analysis. Type of data set: ADME, organism-based. The following applies: in vivo.
The nature of data set [16]: Half life in rat 5 mg/kg, po measured upto 24 hrs by LC-MS/MS analysis. Type of data set: ADME, organism-based. The following applies: in vivo.

As to `Cc1cc(F)c(C(=O)Nc2cccc(-c3nnc4n3CCCC4)n2)cc1-n1nnc(C2CC2)n1`, the IC50 (as a rule, the midpoint of a concentration-inhibition curve) in [1] was above 1 µM; in [2], above 0.1 µM.
With `Cc1ccc(C(=O)Nc2cccc(-c3nncn3C(C)C)n2)cc1-n1cnc(C2CC2)c1`, in [3], the apparent permeability from apical to basolateral (Papp A→B) (as a rule, the apparent permeability from the apical to the basolateral side of a cell layer) was determined as 2.6 nm/s. Moreover, the efflux ratio – broadly, a quotient of directional permeabilities that is used to spot active efflux – in data set [4] amounted to 15.4. For the same compound, in data set [5], the response was half-maximal at 0.018 µM (EC50). Moreover, the bioavailability – broadly, the share of a dose that reaches the circulation, judged against a reference dose that is usually intravenous – in data set [6] came out at 50%. Further, the half-life – broadly, the time needed for the level to fall by half in the phase considered – in data set [7] is 1.2 h.
With `Cc1cc(F)c(C(=O)Nc2cccc(-c3nncn3C(C)C)n2)cc1-n1cnc(C2CC2)c1` [SELONSERTIB], the Activity in the data set filed under Rattus norvegicus [8] turned out to be 28%; in the data set listed under Rattus norvegicus [9], 6%. The same compound displayed a bioavailability in data set [6] of 75%.
Turning to `C[C@H]1CCCOc2ncc(-c3ccncc3)cc2C(=O)Nc2cccc(n2)-c2nncn21`, the Kp uu in [10] is at least 0.1. The IC50 in data set [11] and in data set [12] was at most 0.1 µM in each case.
With `C[C@H]1CCCOc2ncccc2C(=O)Nc2cccc(n2)-c2nncn21`, the Kp uu in data set [10] was at least 0.1. Besides, the half-inhibitory concentration (IC50) was below 0.1 µM in [11] and at most 1 µM in data set [12].
With `Cc1cc2c(cc1-n1cnc(C3CC3)c1)C(=O)N(c1cccc(-c3nncn3C(C)C)n1)C2`, inhibition in [13] was half-maximal at 0.0039 µM (IC50). In [14], the AUC(0-t) – broadly, the area under the concentration-time curve up to a stated or last time point – at 24 h worked out at 19.2 µg·h/mL. Besides, the Cmax (usually the peak of the concentration-time curve) in data set [15] is 8.19 µg/mL. Also, in [16], the half-life was 1.3 h.
As to `Cc1cc2c(cc1-n1cnc(C3CC3)c1)C(=O)N(c1cccc(-c3nncn3C(C)C)n1)C2C` (stereo not drawn), in [14], the area under the curve AUC(0-t) at 24 h was 9.43 µg·h/mL. In addition, the Cmax in [15] was 2.27 µg/mL. In [16], this compound showed a half-life of 2.9 h.
